Results taken from US20220218832A1, “POLYMER DRUG” (BIODYNAMIC RESEARCH FOUNDATION, priority 2019, published 2022).

Assays:
[1] = system: mouse colon cancer cells (C26); test: In vitro cytotoxicity, MTT, mouse colon cancer cells C26 (Test Example 3); assay type: cell-based; conditions: ordinary medium containing 0.1% glucose
Protocol: These C26 cells subcultured intraperitoneally in mice were washed with a MEM medium (centrifugation, 1,500 rpm) and then adjusted the number of cells to 10^5/ml. […] Firstly, the above cells were cultured at a normal oxygen partial pressure for 24 to 30 hours, and then the culture medium [Petri dish, 96 wells] was transferred to a microaerobic conditions, which was made by adding a commercially available oxygen absorber to an anaerobic culture chamber, i.e., a hypoxic agent (oxygen absorber), AnaeroPack—Micro aero generator manufactured by Mitsubishi Gas Chemical Company, Inc., Tokyo, was added into an anaerobic culture chamber to be a microaerobic (hypoxic) oxygen partial pressure (6 to 9%). The sealed chamber used in this test was a medium square jar (3.5 L) manufactured by Sugiyama-Gen Co., Ltd., Tokyo. In this state, the reagents to be examined were added to each medium at a predetermined concentration, and further cultured for 36 hours. After that, the number of living cells was measured by the above MTT method.

[2] = Solubility of lyophilized product in distilled water; assay type: physicochemical; conditions: attempted 10 mg/ml solution
Colon cancer C26 cells = test: In vitro cytotoxicity under normoxic and hypoxic partial pressures for 48 hours, C26 cells (Test Example 4); assay type: cell-based, mouse; conditions: especially under low oxygen partial pressures
Protocol: (§1) Colon cancer C26 and HeLa cells (1×10^4 cells/well) were seeded in Falcon 96-well culture plates and cultured overnight at 37° C. in Eagle MEM containing 10% FBS under normoxic partial pressure (5% CO2, 95% air) and hypoxic partial pressure (using a hypoxic chamber, pO2 6-8%). […] Finally, cell viability was analyzed by MTT assay.
(§2) C26 and HeLa cells were also cultured as described above (FIGS. 7A and 7B) and treated with glucosamine (G) and SMA-glucosamine (SG). Finally, cell viability was measured by MTT assay.

[3] = pH of lyophilized product dissolved in distilled water; assay type: physicochemical
[4] = Surface charge (Zeta potential); assay type: physicochemical; conditions: deionized water, 20 mg/ml
[5] = Particle size by dynamic light scattering; assay type: physicochemical; conditions: 0.1 M tris-HCl buffer (pH 8.2), 15 mg/ml, 25° C.
Protocol: Then, each solution was measured at 25° C. by a light scattering apparatus, Model ELSZ⋅2000ZS manufactured by Otsuka Electronics (Photal Inc., Osaka).

HeLa cells [6] = test: In vitro cytotoxicity under normoxic and hypoxic partial pressures for 48 hours, HeLa cells (Test Example 4); assay type: cell-based; conditions: especially under low oxygen partial pressures
Protocol: as §1, §2

Staphylococcus aureus = system: Staphylococcus aureus
Protocol: (§3) Firstly, in a Falcon plastic plate with 96 wells, 0.1 ml of Mueller-Hinton medium was added to each well, followed by 10 μl of suspension of each bacterium (10^4/well).

[7] = system: Escherichia coli (E. coli)
Protocol: as §3

HeLa cells [8] = conditions: aerobic conditions, 24 hours drug treatment
Protocol: The culture of cells was performed in an Eagle MEM medium supplied with 10% fetal calf serum at 37° C. in 95% air/5% CO2. […] After that, the medium was replaced with a fresh medium and the culture was performed for further 24 hours. Then, viable cells was measured by the MTT method.

[9] = 24 hours, 37° C., boric acid equivalent

Molecule | Cytostatic action, rank order [1] | Solubility in distilled water [2] | Cytotoxicity (cell viability, MTT) (Colon cancer C26 cells) | Intrinsic pH in solution of lyophilized product in distilled water [3] | Surface charge (Zeta potential) [4] [mV] | Average particle size (dynamic light scattering method) in diameter [5] [nm] | Cytotoxicity (cell viability, MTT) (HeLa cells [6]) | Antibacterial activity compared with boric acid (Staphylococcus aureus) | Concentration of boric acid at which antibacterial activity was shown (Staphylococcus aureus; [9]) | Antibacterial activity under more anaerobic conditions (Staphylococcus aureus; more anaerobic conditions) | Antibacterial activity compared with boric acid [7] | Concentration of boric acid at which antibacterial activity was shown [7, 9] | Antibacterial activity under more anaerobic conditions ([7]; more anaerobic conditions) | Growth of cancer cells (cell viability, MTT) (HeLa cells [8])
N[C@H]1C(O)O[C@H](CO)[C@@H](O)[C@@H]1O (stereo partly shown) [glucosamine, reference compound] | strengthened in the order of (A) free glucosamine, (B) SG and (C) SGB |  |  |  |  |  |  |  |  |  |  |  |  | 
SMA-glucosamine conjugate [SG] | strengthened in the order of (A) free glucosamine, (B) SG and (C) SGB | poorly soluble | very potent cytotoxicity | 8.5 | −27 | 90 ± 3 | very potent cytotoxicity |  |  |  |  |  |  | 
SMA-glucosamine-boric acid complex [SGB] | strengthened in the order of (A) free glucosamine, (B) SG and (C) SGB |  |  |  |  |  |  | stronger antibacterial activity than boric acid | lower than 10 mg/ml | further increased | stronger antibacterial activity than boric acid | lower than 10 mg/ml | further increased | significantly suppressed
